What was measured:
[1] = tested on: Rat Limb Bones (PTH induced bone resorption); assay: Bone Resorption Assay: 45Ca Release from Rat Limb Bones (PTH Induced); format: cell-based, rat (Sprague-Dawley CD); settings: 10 μg/mL
Description: The purpose of this assay is to identify compounds that inhibit basal or stimulated bone resorption in culture.
The ability of 2-substituted-imidazo[4,5-c]pyridines to modify the process of bone resorption was evaluated essentially as described by L.G. Raisz, Bone resorption in tissue culture. Factors influencing the response to parathyroid hormone.
Timed pregnant Sprague-Dawley CD® rats (Charles River) are administered 100 μCi ^45 CaCl2 (NEN calcium -45 NEZ-013) in 100 μL of 0.9% saline, subcutaneously, on day 18 of gestation. The rats are sacrificed the following day by CO2 asphyxiation. The fetuses are removed and the right forelimbs excised and placed in a Petri dish containing ice cold explant medium consisting of modified BGJb -Fitton Jackson media (custom formulation, Gibco No. 78-0088) adjusted to pH 7.3 to which 10 mM TES is added. […] Under a dissecting microscope, the bones are gently cleaned of adherent tissue and the cartilaginous ends removed. Incubation and drug treatment. […] The preincubation medium is brought to 37° C. prior to transfer of bones. The preincubation medium consists of the modified BGJb medium (with salts and glucose as above), pH 7.3, containing 29 mM NaHCO3. […] For compounds that require nonaqueous solvents, dilutions are made from the appropriate stock solution with medium. In these instances, basal and bone resorption stimulated controls exposed to an equivalent concentration of the vehicle are included. […] The right ulna and radius from each fetus are used. Both bones are subjected to the same treatment and each treatment group consists of bones from 4 or more fetuses. Treatments are randomly assigned using a preclinical statistics program (PS-ALLOC). After a 48 hour incubation at 37° C. in 5% CO2, the bones are removed from the medium and extracted in 0.5 mL of 0.1N HCl for 1 or more days. Duplicate 150 μL aliquots of the incubation medium and the bone extract are analyzed for ^45 Ca radioactivity in 5 mL of liquid scintillation cocktail.
The percentage of bone ^45 Ca released into the medium is determined as follows: [formula] […]

[2] = tested on: Rat Limb Bones (basal bone resorption); assay: Basal Bone Resorption Assay: 45Ca Release from Rat Limb Bones; format: cell-based; settings: 10 μg/mL
Excerpt: The purpose of this assay is to test stimulators and inhibitors of bone resorption in vitro. The release of ^45 Ca from in vitro labeled murine bone explants into the culture media is taken as an index of bone resorption.
Rat pups are labelled […] by injecting pregnant dams (18 days) with 100 μCi of ^45 Ca.
Two days after the initiation of labelling, the dam is anesthetized with halothane and killed by cervical dislocation. The pups are ablated and quickly decapitated. The calvaria (frontal and parietal bones), forelimbs (containing radii and ulnae), and hind limbs (tibiae) are removed and placed in control media in a petri dish. Bones are debrided of soft tissue by a combination of blunt dissection, and gentle rolling on bibulous paper, taking care not to disturb the periosteum. Cartilaginous ends are cut off long bones. Calvaria are cut in half along midline suture. Bones are separated into 3 categories: calvaria halves, Tibiae and ulnae/radii. Groups of eight (per bone group) are randomly placed in 24-well culture plates containing 0.5 mL of control media. Cultures are maintained at 37° C. in a humidified incubator of 95% air: 5% CO2.
These bones are incubated for 24 hours, media is aspirated from the bones and replaced with fresh media containing test substances. Each bone group has a control group of 8 and a dead bone group of 8. The devitalized cultures are obtained by heating the bones in medium at 55° C. for 60 minutes. The bones are incubated at 37° C. for an additional 72 hours. At the end of this period a 100 microliter aliquot of media is removed and placed in a scintillation vial. Ten mL of Aquasol is added, the ^45 Ca is quantified in a scintillation spectrometer. Bones are rinsed in saline, placed in a scintillation vial, hydrolyzed overnight in 0.75 mL 6N HCl at room temperature. The hydrolyzed bone solution is neutralized by the addition of 2.25 mL of 2N NaOH, followed by 10 mL of Aquasol, the ^45 Ca content is determined by scintillation spectrometry.
Analysis: ^45 Ca release into culture medium from the 24-96 hour period is individually compared to ^45 Ca release in control cultures and to devitalized bone via Dunnett's test. […]

[3] = tested on: osteopenia induced by denervation of the sciatic nerve in rats; assay: Denervation Induced Osteopenia in Rats; format: in vivo, rat (female Sprague Dawley CD)
Excerpt: The purpose of this assay is to evaluate the effect, in rats, of agents on the reduction in bone mass (osteopenia) induced by immobilization resulting from surgical severance (denervation) of the sciatic nerve.
The animals are housed in plastic cages (4 or 5 rats/cage) with food (rat purina 500 chow) and water ad libitum; 14/10 day/night cycle.
After one week of in-house acclimatization, the animals are randomly divided into groups of 6 to 10 rats/group. Each rat is weighed, anesthetized with an intraperitoneal administration of 100 mg/kg ketamine (Bristol Laboratories, Syracuse, N.Y.) and 0.75 mg/kg Acepromazine (Aveco, Ft. Dodge, Iowa). The left hind limb is shaved and denervated by making a lateral incision parallel to the femur and by surgically removing half of a centimeter of the sciatic nerve adjacent to caudofemoralis and adductor brevis muscles. The incision is closed with wound clips. After surgery, the rats are housed in cages with absorbent bedding to minimize additional trauma to the immobilized limb. A 24 hour post-surgery recovery period is allowed before the initiation of the drug treatment.
The concentration of the drug stock is calculated to be delivered in a volume of 0.1 mL/100 gram body weight. The drug solution or a uniform suspension is prepared in 1% Tween 80 in normal saline. The drugs are administered via oral or parenteral routes daily (five times a week) for four weeks.
A sequential triple labeling of mineralized tissue is employed to determine the osseous changes (especially the bone formation) and the mineralization rates. Each animal is administered 90 mg/kg Xylenol orange (Fisher Scientific Company), S.C., 15 mg/kg Calcein (Sigma Chemical Company), S.C. and 15 mg/kg Demeclocycline (Sigma Chemical Company), i.p., approximately 21 days, 10 days and 2 days prior to the termination of the study, respectively.
At the end of the fourth week, each rat is weighed, anesthetized with an intraperitoneal administration of 100 mg/kg ketamine with 0.75 mg/kg Acepromazine and approximately 4 mL of blood collected via cardiac puncture. The anesthetized rats are euthanized by exposure to carbon dioxide. The femora and tibiae from both limbs are dissected free of soft tissue. (i) Femora are ashed at ~1100° C. for 16 hours using a muffle furnace. --(ii) Proximal tibia are fixed, dehydrated and embedded undecalcified in a methyl methacrylate-glycol methacrylate mixture. Longitudinal tissue sections (10 microns) are prepared on a Polycut S microtome (Reichert). Staining is performed on free-floating sections using a modified Goldner's stain, which are then mounted and coverslipped.
Cancellous bone content in the proximal tibia is quantified (as two dimensional bone mineral area [B.Ar]) with an image analysis processing device (software developed by Drexel University).
The areas of the tibia selected for cancellous bone content evaluation are the primary and secondary spongiosa. To select and standardize this area for evaluation, the epiphyseal growth plate-metaphyseal junction is oriented parallel to the abscissa of the digitizing screen. Bone elements 1.7 mm (secondary spongiosa) and 0.2 mm (primary spongiosa) from the growth plate and equidistant from the flanking cortical elements are then quantified as described above. The total area evaluated is 2.30 mm wide and 1.45 mm deep, constituting a 3.34 mm^2 area.
Body weight, femur mass (dried or ashed) and trabecular (cancellous) bone mineral area (B.Ar) are determined.
The difference (both absolute and percent change) in femur mass and bone mineral area between intact (control) and denervated limbs of a treatment group are compared with that for the vehicle group using a one-way analysis of variance with Dunnett's test, or other multiple comparison methods.
The results are reported in Table I and II under the heading In Vivo.

SMILES: COc1cccc(CS(=O)(=O)c2nc3cnccc3[nH]2)c1 [Example 4]
- Inhibition of Bone Resorption, PTH Induced ([1]; Table I): Active
- Inhibition of Bone Resorption, Basal ([2]; Table I): Marginal
- Inhibition of Bone Resorption, In Vivo ([3]; po, 672 h): Inactive

SMILES: [O-][S+](Cc1cc2c(cc1Cl)OCO2)c1nc2cnccc2[nH]1 (stereo not drawn) [Example 25]
- Inhibition of Bone Resorption, PTH Induced ([1]; Table I): Active
- Inhibition of Bone Resorption, Basal ([2]; Table I): Active
- Inhibition of Bone Resorption, In Vivo ([3]; po, 672 h): Inactive

SMILES: COc1ccc(CSc2nc3cnccc3[nH]2)cc1 [Example 26, 2-[[(4-Methoxyphenyl)methyl]thio]-1H-imidazo[4,5-c]pyridine]
- Inhibition of Bone Resorption, PTH Induced ([1]; Table II): Active
- Inhibition of Bone Resorption, Basal ([2]; Table II): Inactive
- Inhibition of Bone Resorption, In Vivo ([3]; Table II, 25 mg/kg, p.o.): Inactive

SMILES: COc1cccc(CSc2nc3cnccc3[nH]2)c1 [Example 2, 2-[[(3-Methoxyphenyl)methyl]thio]-1H-imidazo[4,5-c]pyridine]
- Inhibition of Bone Resorption, PTH Induced ([1]; Table II): Inactive
- Inhibition of Bone Resorption, Basal ([2]; Table II): Inactive
- Inhibition of Bone Resorption, In Vivo ([3]; Table II, 25 mg/kg, i.p.): Active

SMILES: Cc1cc(C)c(C[S+]([O-])c2nc3cnccc3[nH]2)c(C)c1 (stereo not drawn) [Example 19, 2-[[(2,4,6-Trimethylphenyl)methyl]sulfinyl]-1H-imidazo[4,5-c]pyridine]
- Inhibition of Bone Resorption, PTH Induced ([1]; Table I): Active
- Inhibition of Bone Resorption, Basal ([2]; Table I): Active
- Inhibition of Bone Resorption, In Vivo ([3]; po, 672 h): Inactive

SMILES: Fc1ccc(CSc2nc3cnccc3[nH]2)cc1F [Example 30, 2-[[(3,4-Difluorophenyl)methyl]thio]-1H-imidazo[4,5-c]pyridine]
- Inhibition of Bone Resorption, PTH Induced ([1]; Table II): Inactive
- Inhibition of Bone Resorption, Basal ([2]; Table II): Inactive
- Inhibition of Bone Resorption, In Vivo ([3]; Table II, 25 mg/kg, p.o.): Inactive

Source: patent publication US5081253A, “Imidazo(4,5-C)pyridines as antiosteoporotic agents” (American Home Products Corporation, priority 1990, dated 1992)
